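Tested at 5 concentrations; 48 h exposure; 96-well plates; endpoints linearly interpolated, else capped at highest concentration. GI50: concentration for 50% inhibition of growth. TGI: concentration producing complete growth inhibition.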
Assays:
Experiment in all cases: NCI-60 cell line screen, 48 h
786-0 renal = system: 786-0 renal
A498 renal = system: A498 renal
A549 NSCLC = system: A549 NSCLC
ACHN renal = system: ACHN renal
BT-549 breast = system: BT-549 breast
CAKI-1 renal = system: CAKI-1 renal
CCRF-CEM leukemia = system: CCRF-CEM leukemia
COLO 205 colon = system: COLO 205 colon
DU-145 prostate = system: DU-145 prostate
HCC-2998 colon = system: HCC-2998 colon
HCT-116 colon = system: HCT-116 colon
HCT-15 colon = system: HCT-15 colon
HL-60(TB) leukemia = system: HL-60(TB) leukemia
HOP-62 NSCLC = system: HOP-62 NSCLC
HOP-92 NSCLC = system: HOP-92 NSCLC
HS 578T breast = system: HS 578T breast
HT29 colon = system: HT29 colon
IGROV1 ovarian = system: IGROV1 ovarian
K-562 leukemia = system: K-562 leukemia
KM12 colon = system: KM12 colon
LOX IMVI melanoma = system: LOX IMVI melanoma
M14 melanoma = system: M14 melanoma
MALME-3M melanoma = system: MALME-3M melanoma
MCF7 breast = system: MCF7 breast
MDA-MB-231 breast = system: MDA-MB-231 breast
MDA-MB-435 = system: MDA-MB-435
MOLT-4 leukemia = system: MOLT-4 leukemia
NCI-H226 lung = system: NCI-H226 lung
NCI-H23 lung = system: NCI-H23 lung
NCI-H460 lung = system: NCI-H460 lung
NCI-H522 lung = system: NCI-H522 lung
NCI/ADR-RES ovarian = system: NCI/ADR-RES ovarian
OVCAR-3 ovarian = system: OVCAR-3 ovarian
OVCAR-4 ovarian = system: OVCAR-4 ovarian
OVCAR-5 ovarian = system: OVCAR-5 ovarian
OVCAR-8 ovarian = system: OVCAR-8 ovarian
PC-3 prostate = system: PC-3 prostate
RPMI-8226 leukemia = system: RPMI-8226 leukemia
RXF 393 renal = system: RXF 393 renal
SF-268 CNS = system: SF-268 CNS
SF-295 CNS = system: SF-295 CNS
SF-539 CNS = system: SF-539 CNS
SK-MEL-2 melanoma = system: SK-MEL-2 melanoma
SK-MEL-28 melanoma = system: SK-MEL-28 melanoma
SK-MEL-5 melanoma = system: SK-MEL-5 melanoma
SK-OV-3 ovarian = system: SK-OV-3 ovarian
SN12C renal = system: SN12C renal
SNB-19 CNS = system: SNB-19 CNS
SNB-75 CNS = system: SNB-75 CNS
SR leukemia = system: SR leukemia
SW-620 colon = system: SW-620 colon
T-47D breast = system: T-47D breast
TK-10 renal = system: TK-10 renal
U251 CNS = system: U251 CNS
UACC-257 melanoma = system: UACC-257 melanoma
UACC-62 melanoma = system: UACC-62 melanoma
UO-31 renal = system: UO-31 renal

Compound: Cn1cc(C2=C(c3cn(C)c4ccc(OCc5ccccc5)cc34)C(=O)NC2=O)c2ccccc21
- GI50 (786-0 renal): > 25 µM
- TGI (786-0 renal): > 25 µM
- GI50 (A498 renal): > 25 µM
- TGI (A498 renal): > 25 µM
- GI50 (A549 NSCLC): > 25 µM
- TGI (A549 NSCLC): > 25 µM
- GI50 (ACHN renal): > 25 µM
- TGI (ACHN renal): > 25 µM
- GI50 (BT-549 breast): > 25 µM
- TGI (BT-549 breast): > 25 µM
- GI50 (CAKI-1 renal): > 25 µM
- TGI (CAKI-1 renal): > 25 µM
- GI50 (CCRF-CEM leukemia): > 25 µM
- TGI (CCRF-CEM leukemia): > 25 µM
- GI50 (COLO 205 colon): > 25 µM
- TGI (COLO 205 colon): > 25 µM
- GI50 (DU-145 prostate): > 25 µM
- TGI (DU-145 prostate): > 25 µM
- GI50 (HCC-2998 colon): > 25 µM
- TGI (HCC-2998 colon): > 25 µM
- GI50 (HCT-116 colon): > 25 µM
- TGI (HCT-116 colon): > 25 µM
- GI50 (HCT-15 colon): > 25 µM
- TGI (HCT-15 colon): > 25 µM
- GI50 (HL-60(TB) leukemia): > 25 µM
- TGI (HL-60(TB) leukemia): > 25 µM
- GI50 (HOP-62 NSCLC): > 25 µM
- TGI (HOP-62 NSCLC): > 25 µM
- GI50 (HOP-92 NSCLC): > 25 µM
- TGI (HOP-92 NSCLC): > 25 µM
- GI50 (HS 578T breast): > 21.2 µM
- TGI (HS 578T breast): > 25 µM
- GI50 (HT29 colon): > 25 µM
- TGI (HT29 colon): > 25 µM
- GI50 (IGROV1 ovarian): > 25 µM
- TGI (IGROV1 ovarian): > 25 µM
- GI50 (K-562 leukemia): > 25 µM
- TGI (K-562 leukemia): > 25 µM
- GI50 (KM12 colon): > 25 µM
- TGI (KM12 colon): > 25 µM
- GI50 (LOX IMVI melanoma): > 25 µM
- TGI (LOX IMVI melanoma): > 25 µM
- GI50 (M14 melanoma): > 25 µM
- TGI (M14 melanoma): > 25 µM
- GI50 (MALME-3M melanoma): > 25 µM
- TGI (MALME-3M melanoma): > 25 µM
- GI50 (MCF7 breast): > 25 µM
- TGI (MCF7 breast): > 25 µM
- GI50 (MDA-MB-231 breast): > 25 µM
- TGI (MDA-MB-231 breast): > 25 µM
- GI50 (MDA-MB-435): > 25 µM
- TGI (MDA-MB-435): > 25 µM
- GI50 (MOLT-4 leukemia): > 25 µM
- TGI (MOLT-4 leukemia): > 25 µM
- GI50 (NCI-H226 lung): > 25 µM
- TGI (NCI-H226 lung): > 25 µM
- GI50 (NCI-H23 lung): > 25 µM
- TGI (NCI-H23 lung): > 25 µM
- GI50 (NCI-H460 lung): > 25 µM
- TGI (NCI-H460 lung): > 25 µM
- GI50 (NCI-H522 lung): > 25 µM
- TGI (NCI-H522 lung): > 25 µM
- GI50 (NCI/ADR-RES ovarian): > 25 µM
- TGI (NCI/ADR-RES ovarian): > 25 µM
- GI50 (OVCAR-3 ovarian): > 25 µM
- TGI (OVCAR-3 ovarian): > 25 µM
- GI50 (OVCAR-4 ovarian): > 16.9 µM
- TGI (OVCAR-4 ovarian): > 25 µM
- GI50 (OVCAR-5 ovarian): > 25 µM
- TGI (OVCAR-5 ovarian): > 25 µM
- GI50 (OVCAR-8 ovarian): > 25 µM
- TGI (OVCAR-8 ovarian): > 25 µM
- GI50 (PC-3 prostate): > 25 µM
- TGI (PC-3 prostate): > 25 µM
- GI50 (RPMI-8226 leukemia): > 25 µM
- TGI (RPMI-8226 leukemia): > 25 µM
- GI50 (RXF 393 renal): > 25 µM
- TGI (RXF 393 renal): > 25 µM
- GI50 (SF-268 CNS): > 25 µM
- TGI (SF-268 CNS): > 25 µM
- GI50 (SF-295 CNS): > 25 µM
- TGI (SF-295 CNS): > 25 µM
- GI50 (SF-539 CNS): > 25 µM
- TGI (SF-539 CNS): > 25 µM
- GI50 (SK-MEL-2 melanoma): > 25 µM
- TGI (SK-MEL-2 melanoma): > 25 µM
- GI50 (SK-MEL-28 melanoma): > 25 µM
- TGI (SK-MEL-28 melanoma): > 25 µM
- GI50 (SK-MEL-5 melanoma): > 25 µM
- TGI (SK-MEL-5 melanoma): > 25 µM
- GI50 (SK-OV-3 ovarian): > 25 µM
- TGI (SK-OV-3 ovarian): > 25 µM
- GI50 (SN12C renal): > 25 µM
- TGI (SN12C renal): > 25 µM
- GI50 (SNB-19 CNS): > 25 µM
- TGI (SNB-19 CNS): > 25 µM
- GI50 (SNB-75 CNS): > 25 µM
- TGI (SNB-75 CNS): > 25 µM
- GI50 (SR leukemia): > 25 µM
- TGI (SR leukemia): > 25 µM
- GI50 (SW-620 colon): > 25 µM
- TGI (SW-620 colon): > 25 µM
- GI50 (T-47D breast): > 25 µM
- TGI (T-47D breast): > 25 µM
- GI50 (TK-10 renal): > 25 µM
- TGI (TK-10 renal): > 25 µM
- GI50 (U251 CNS): > 25 µM
- TGI (U251 CNS): > 25 µM
- GI50 (UACC-257 melanoma): > 25 µM
- TGI (UACC-257 melanoma): > 25 µM
- GI50 (UACC-62 melanoma): > 25 µM
- TGI (UACC-62 melanoma): > 25 µM
- GI50 (UO-31 renal): > 25 µM
- TGI (UO-31 renal): > 25 µM

Source: PubChem BioAssay (NCI)
